Data reported in patent publication US12336981B2, “Compounds and compositions for the inhibition of NAMPT” (Valo Health, Inc., priority 2010, dated 2025).
Where two headings read alike, the source gives them in different places.

Experiments:
NAMPT = biological target: T1, NAMPT (Homo sapiens, UniProt P43490); assay: Biochemical inhibition assay: NAMPT enzymatic reaction, NMN quantified by mass spectrometry; settings: read-out: Biochem IC50
T1 construct: His tag; host or cells: E. coli
How it was run: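 Inhibition of E. coli-expressed His-tagged human NAMPT, measured as NMN formation by mass spectrometry after a 30 min room-temperature reaction containing 1 μM NAM, 100 μM PRPP and 2.5 mM ATP.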

A2780 cells = assay: In-vitro cell proliferation assay (SRB), A2780 cells; assay type: cell-based; settings: Homo sapiens, A2780, 72 h, A2780 cells, 72 hours, read-out: A2780 IC50
How it was run: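 Read-out is SRB absorbance at 570 nm on TCA-fixed cells after 72 hours of compound treatment at 37° C. in 5% CO2. Background from a media-only plate is subtracted, and % inhibition is interpolated between two tested concentrations.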

T1 sequence (P43490 whole entry): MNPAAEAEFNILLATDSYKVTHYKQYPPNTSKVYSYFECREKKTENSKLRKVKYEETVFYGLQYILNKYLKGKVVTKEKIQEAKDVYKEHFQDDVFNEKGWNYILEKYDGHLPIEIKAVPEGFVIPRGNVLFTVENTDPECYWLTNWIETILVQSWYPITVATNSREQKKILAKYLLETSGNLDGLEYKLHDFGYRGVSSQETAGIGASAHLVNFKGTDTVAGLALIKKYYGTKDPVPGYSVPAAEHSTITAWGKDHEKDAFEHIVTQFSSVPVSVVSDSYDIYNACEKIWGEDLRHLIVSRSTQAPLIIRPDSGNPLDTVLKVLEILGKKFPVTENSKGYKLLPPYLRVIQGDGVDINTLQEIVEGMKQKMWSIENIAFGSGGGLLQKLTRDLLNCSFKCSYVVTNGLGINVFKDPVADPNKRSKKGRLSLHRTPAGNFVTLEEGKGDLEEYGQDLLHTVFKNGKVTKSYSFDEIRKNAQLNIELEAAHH

Row | SMILES | IC50 (NAMPT; NAMPT enzymatic reaction) [nM] | IC50 (A2780 cells; SRB) [nM] | IC50 (NAMPT; NAMPT enzymatic assay) [nM] | IC50 (A2780 cells; SRB assay) [nM]
1 | COc1ccc(F)c(F)c1S(=O)(=O)c1ccc(CNC(=O)c2cc3cnccc3[nH]2)cc1 [N-({4-[(2,3-difluoro-6-methoxybenzene)sulfonyl]phenyl}methyl)-1H-pyrrolo[3,2-c]pyridine-2-carboxamide] | 204 | 84.9 |  | 
2 | O=C(NCc1ccc(S(=O)(=O)c2ccc3c(c2)OCO3)cc1)c1cnc2[nH]ncc2c1 [N-{[4-(2H-1,3-benzodioxole-5-sulfonyl)phenyl]methyl}-1H-pyrazolo[3,4-b]pyridine-5-carboxamide] |  | 7.4 | 48.2 | 
3 | O=C(NCc1ccc(S(=O)(=O)c2cccc3c2Oc2ccccc2S3)cc1)c1cc2ccncc2s1 [N-{[4-(phenoxathiine-4-sulfonyl)phenyl]methyl}thieno[2,3-c]pyridine-2-carboxamide] | 4 |  |  | 1.7
4 | CC(C)(C)c1cccc(S(=O)(=O)c2ccc(CNC(=O)c3cnc4nccn4c3)cc2)c1 | < 0.65 | 1.2 |  | 
5 | CCCOc1cccc(S(=O)(=O)c2ccc(CNC(=O)c3ccc4nccn4c3)cc2)c1 | 4.2 | 6.3 |  | 
6 | O=C(NCc1ccc(S(=O)(=O)c2ccccc2)cc1)c1cc(-c2ccncc2)n[nH]1 [N-{[4-(benzenesulfonyl)phenyl]methyl}-3-(pyridin-4-yl)-1H-pyrazole-5-carboxamide] | 3180 |  |  | 21600
7 | O=C(NCc1ccc(S(=O)(=O)c2ccc(OC(F)(F)F)cc2)cc1)c1cnc2nccn2c1 |  | 17.6 | 5 | 
8 | O=C(NCc1ccc(S(=O)(=O)c2cnc(N3CCCC3)s2)cc1)c1cnc2[nH]ncc2c1 [N-({4-[2-(pyrrolidin-1-yl)-1,3-thiazole-5-sulfonyl]phenyl}methyl)-1H-pyrazolo[3,4-b]pyridine-5-carboxamide] |  | 0.9 | 2.8 | 
9 | O=C(NCc1ccc(S(=O)(=O)c2ccc(C(F)(F)F)cn2)cc1)c1ccc2nccn2c1 [N-({4-[5-(trifluoromethyl)pyridine-2-sulfonyl]phenyl}methyl)imidazo[1,2-a]pyridine-6-carboxamide] |  | 32.6 | 46.3 | 
10 | Cc1ccc(S(=O)(=O)c2ccc(CNC(=O)c3cnc4[nH]ncc4c3)cc2)cc1C | 5.1 | 3.4 |  | 
11 | COc1c(Cl)ccc(S(=O)(=O)c2ccc(CNC(=O)c3cc4ccncc4s3)cc2)c1Cl | 5.1 | 6.7 |  | 
12 | CN(C)c1ccc(S(=O)(=O)c2ccc(CNC(=O)c3cc4ccncc4s3)cc2)cn1 [N-({4-[6-(dimethylamino)pyridine-3-sulfonyl]phenyl}methyl)thieno[2,3-c]pyridine-2-carboxamide] |  | 0.6 | 1 | 
13 | CCCCOc1ccc(Cl)cc1S(=O)(=O)c1ccc(CNC(=O)c2cnc3[nH]ncc3c2)cc1 [N-({4-[(2-butoxy-5-chlorobenzene)sulfonyl]phenyl}methyl)-1H-pyrazolo[3,4-b]pyridine-5-carboxamide] | 117 | 73.7 |  | 
14 | O=C(NCc1ccc(S(=O)(=O)c2ccccc2OC(F)(F)F)cc1)c1cc2ccncc2s1 [N-[(4-{[2-(trifluoromethoxy)benzene]sulfonyl}phenyl)methyl]thieno[2,3-c]pyridine-2-carboxamide] | 4 |  |  | 2.8
15 | O=C(NCc1ccc(S(=O)(=O)c2cccc(OC(F)(F)F)c2)cc1)c1cc2ccncc2o1 |  | 6.7 | 3.4 | 
16 | O=C(NCc1ccc(S(=O)(=O)c2ccc(F)cc2Cl)cc1)c1cnc2nccn2c1 | 14.4 | 100 to 1000 |  | 
17 | O=C(NCc1ccc(S(=O)(=O)c2cccc(C(F)(F)F)c2Cl)cc1)c1cnc2[nH]ncc2c1 [N-[(4-{[2-chloro-3-(trifluoromethyl)benzene]sulfonyl}phenyl)methyl]-1H-pyrazolo[3,4-b]pyridine-5-carboxamide] |  | 38.4 | 36.5 | 
18 | Cc1ccc(S(=O)(=O)c2ccc(CNC(=O)c3cc4cnccc4[nH]3)cc2)c(F)c1 [N-({4-[(2-fluoro-4-methylbenzene)sulfonyl]phenyl}methyl)-1H-pyrrolo[3,2-c]pyridine-2-carboxamide] | 11 |  |  | 21
19 | Cc1ncccc1S(=O)(=O)c1ccc(CNC(=O)c2cnc3nccn3c2)cc1 [N-{[4-(2-methylpyridine-3-sulfonyl)phenyl]methyl}imidazo[1,2-a]pyrimidine-6-carboxamide] |  | 100 to 1000 | 20.8 | 
20 | O=C(NCc1ccc(S(=O)(=O)c2cc(F)cc(N3CCCC3)c2)cc1)c1cc2ccncc2s1 |  | 2.7 | 1.2 | 
21 | Cc1ccc(F)c(S(=O)(=O)c2ccc(CNC(=O)c3cnc4nccn4c3)cc2)c1 | 6.8 | 27.5 |  | 
22 | Cc1ccc(S(=O)(=O)c2ccc(CNC(=O)c3cnc4nccn4c3)cc2)cn1 [N-{[4-(6-methylpyridine-3-sulfonyl)phenyl]methyl}imidazo[1,2-a]pyrimidine-6-carboxamide] |  | 55.5 | 5.9 | 
23 | O=C(NCc1ccc(S(=O)(=O)c2cccc(N3CCCC3)c2)cc1)c1cc2cc(O)ccc2[nH]1 | 144 | 100 to 1000 |  | 
24 | Cn1cc(S(=O)(=O)c2ccc(CNC(=O)c3cc4cnccc4[nH]3)cc2)cn1 [N-{[4-(1-methyl-1H-pyrazole-4-sulfonyl)phenyl]methyl}-1H-pyrrolo[3,2-c]pyridine-2-carboxamide] | 48 |  |  | 123
25 | Cc1cc(F)ccc1S(=O)(=O)c1ccc(CNC(=O)c2cc3ccncc3o2)cc1 | 18.7 | 65.1 |  | 
